One molecule from BindingDB's records for doi:10.1016/S0960-894X(01)81219-1 (1993) can be followed below.

The nature of this experiment: The inhibitory constant was evaluated against Endothelin A receptor in rabbit renal artery tissue.

Turning to `CC[C@H](C)[C@H](NC(=O)[C@H](CC(=O)O)NC(=O)[C@H](CCCN)NC(=O)[C@@H](Cc1c[nH]c2ccccc12)NC(C)=O)C(=O)N[C@H](C(=O)N[C@@H](Cc1c[nH]c2ccccc12)C(=O)O)[C@@H](C)CC` [(S)-3-{(S)-2-[(R)-2-Acetylamino-3-(1H-indol-3-yl)-propionylamino]-5-amino-pentanoylamino}-N-((1S,2R)-1-{(1S,2R)-1-[(S)-1-carboxy-2-(1H-indol-3-yl)-ethylcarbamoyl]-2-methyl-butylcarbamoyl}-2-methyl-butyl)-succinamic acid], the IC50 is 130 nM.

What is called IC50 is the point on the concentration scale where inhibition reaches its midpoint. A lower IC50 goes with higher potency.
